Measurements reported in paper PMC12670396, “Crizotinib- or Ceritinib-Conjugated Platinum(IV) Prodrugs As Potent Multiaction Agents Inducing Antiproliferative Effects in 2D and 3D Cancer Cell Models” (Journal of Medicinal Chemistry, 2025).

Assays:
CT26 and NCI-H2228 cells = test: Extracellular HMGB1 (ELISA); type: cell-based; details: IC50 concentrations, 24 h
Protocol: The amount of HMGB1 in the medium was determined using an enzyme-linked immunosorbent assay (ELISA).
CT26 and NCI-H2228 cells were seeded in 48-well plates at a density of 5 × 10^4 cells/well and grown overnight. […] Aliquots of the supernatants were then withdrawn and processed using the HMGB1 Express ELISA kit (TECAN) according to the manufacturer’s instructions. The final absorbance, proportional to the HMGB1 amount, was read at 420 nm using a multimode SPARK reader (TECAN).

[1] = Stability in RPMI cell culture medium with serum (HPLC); details: serum
Protocol: Two conditions must be met for Pt(IV) complexes to serve as true prodrugs: they must remain stable in biological fluids and should be activated by reduction within the cancer cells to release the bioactive components in their active form, thereby facilitating the rapid onset of cytotoxic effects. […] The reduction in the area of the HPLC peak of the compounds was monitored as a function of time, and their half-lives were calculated (Table and Figures S26,S27).
The stock solutions were prepared by dissolving the compounds in a 1:9 (v/v) mixture of DMSO and RPMI media. After preparation, the samples were injected and stored at 37 °C throughout the experiment. The final concentration of the complexes used for the experiment is 50–60 μM.

[2] = tested on: hepatocyte-like cells (HLC); test: Cytotoxicity in hepatocyte-like cells, sulphorhodamine B assay; type: cell-based; details: hepatocyte-like cells from human pluripotent cells
Protocol: Growth inhibition activity in cancer cell lines was compared with the activity to inhibit the proliferation of normal (noncancerous) cells, namely MRC-5, IMR-90, hTERT-HPNE, and MCF10A cells. Selectivity indexes (SI) were calculated as (IC50 in noncancerous cells)/(average IC50 in cancer cells). […] We further assessed the toxicity of several of the compounds in hepatocyte-like cells (HLC) generated from human pluripotent cells.
Cytotoxicity in hepatocyte-like cells (HLC). STEMdiff Hepatocyte Kit was used to generate HLC from human pluripotent stem cells. Cytotoxicity of several of the tested compounds in HLC was evaluated using the sulphorhodamine B assay.

N.N.[Cl][Pt][Cl] [cisPt, cisplatin, reference compound]
HMGB1 externalization relative to nontreated control (CT26 and NCI-H2228 cells): 2 fold

CC(Oc1cc(-c2cnn(C3CCN(C(=O)[O][Pt]([Cl])([Cl])[O]C(=O)CCCc4ccccc4)CC3)c2)cnc1N)c1c(Cl)ccc(F)c1Cl.N.N (centres unmarked) [compound 3, ctc-[Pt(NH3)2(crizotinib)(PhB)Cl2]]
stability half-life (t 1/2) [1]: 42 h
IC50 [2]: 5 ± 1 µM

Cc1cc(Nc2ncc(Cl)c(Nc3ccccc3S(=O)(=O)C(C)C)n2)c(OC(C)C)cc1C1CCN(C(=O)[O][Pt]([Cl])([Cl])[O]C(=O)CCCc2ccccc2)CC1.N.N [compound 7, ctc-[Pt(NH3)2(ceritinib)(PhB)Cl2]]
stability half-life (t 1/2) [1]: 37 h
IC50 [2]: 4 ± 1 µM
